Experimental data published in ChEMBL document CHEMBL1134161, “Stereospecific synthesis of (2S)-2-methyl-3-(2',6'-dimethyl-4'-hydroxyphenyl)-propionic acid (Mdp) and its incorporation into an opioid peptide” (Bioorg Med Chem Lett, 2001).
Peptide text beside a SMILES is read from it. * marks the point of attachment. X1 = Cc1cc(O)cc(C)c1C[C@H](C)C(=O)*

What was measured:
Cavia porcellus [1] = organism: Cavia porcellus; test: In vitro inhibition of electrically evoked contractions of guinea pig ileum(GPI); format: functional
[2] = molecular target: Kappa-type opioid receptor (Homo sapiens, UniProt P41145); test: Tested for binding affinity towards Opioid receptor kappa 1
Mus musculus [3] = organism: Mus musculus; test: In vitro inhibition of electrically evoked contractions of mouse vas deferens(MVD); format: functional, organism-based
Cavia porcellus [4] = organism: Cavia porcellus; test: Tested for antagonistic activity against Mu agonist TAPP in the GPI assay; format: functional
Mus musculus [5] = organism: Mus musculus; test: Tested for antagonistic activity against Delta agonist DPDPE in the MVD assay; format: functional

Sequence of Kappa-type opioid receptor (P41145 whole entry): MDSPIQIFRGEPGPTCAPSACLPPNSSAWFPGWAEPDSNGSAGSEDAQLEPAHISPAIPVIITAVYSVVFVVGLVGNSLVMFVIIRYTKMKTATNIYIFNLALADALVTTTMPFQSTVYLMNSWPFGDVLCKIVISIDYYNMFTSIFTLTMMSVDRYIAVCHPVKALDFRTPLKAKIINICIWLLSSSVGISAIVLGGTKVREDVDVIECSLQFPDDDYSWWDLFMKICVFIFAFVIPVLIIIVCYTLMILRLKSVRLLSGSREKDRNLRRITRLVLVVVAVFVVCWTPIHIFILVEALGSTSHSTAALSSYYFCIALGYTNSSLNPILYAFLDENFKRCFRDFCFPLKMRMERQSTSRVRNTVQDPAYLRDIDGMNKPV

With Cc1cc(O)cc(C)c1C[C@H](N)C(=O)N[C@@H](C)C(=O)NCC(=O)N[C@@H](Cc1ccccc1)C(=O)N[C@@H](CC(C)C)C(N)=O the IC50 (Cavia porcellus [1]) was 0.586 nM, the Ki [2] was > 10000 nM and the IC50 (Mus musculus [3]) was 0.212 nM.

For Cc1cc(O)cc(C)c1C[C@H](C)C(=O)N[C@@H](C)C(=O)NCC(=O)N[C@@H](Cc1ccccc1)C(=O)N[C@@H](CC(C)C)C(N)=O (X1-AGFL-NH2), the Ke (Cavia porcellus [4]) was 154 nM, the Ki [2] was > 10000 nM and the Ke (Mus musculus [5]) was 28.1 nM.
